Measurements from publication PMC3608651, “A Broad Profile of Co-Dominant Epitopes Shapes the Peripheral Mycobacterium tuberculosis Specific CD8+ T-Cell Immune Response in South African Patients with Active Tuberculosis” (PLoS ONE, 2013).

Legend:
Assay type in all cases: binding
HLA-A*68:01 [1] = target: T1, HLA-A*68:01 (Homo sapiens, UniProt P04439, A269V/D185E/E176V/E277Q/E87N/F33Y/G231S/I121M/I166T/I218V/L180W/L300P/L318F/N151K/P208A/P217A/Q86R/R169H/T345S); conditions: percent relative the binding of positive control peptide […]; duplicated experiments; positive binder >40%
HLA-A*24:02 [2] = target: T2, HLA-A*24:02 (Homo sapiens, UniProt P04439, D101N/D140Y/D185E/E176V/E190D/F33S/G103R/G107R/I119L/I121M/I306V/K335N/L105A/L180Q/L300P/N151K/N90K/Q86E/Q94H/R106L/R138H/R89G/T104I/T345S/V100E/W191G/Y123F); conditions: percent relative the binding of positive control peptide […]; duplicated experiments; positive binder >40%
HLA-B*07:02 [3] = target: T3, HLA-B*07:02 (Homo sapiens, UniProt P01889); conditions: percent relative the binding of positive control peptide […]; duplicated experiments; positive binder >40%
HLA-C*07:01 [4] = target: T4, HLA-C*07:01 (Homo sapiens, UniProt P10321, K90N/S123Y); conditions: percent relative the binding of positive control peptide […]; duplicated experiments; positive binder >40%
HLA-A*02:01 [5] = target: T5, HLA-A*02:01 (Homo sapiens, UniProt P04439, D140Y/D185E/D98H/E176V/E277Q/G131W/G231S/I119V/I121R/I166T/I218V/L300P/L318F/N151K/N90K/P208A/P217A/Q86G/Q94H/R138H/R169H/T345S); conditions: time points 0-8 h; time when 50% of peptide has dissociated
HLA-A*30:02 [6] = target: T6, HLA-A*30:02 (Homo sapiens, UniProt P04439, D101N/D140H/D185E/E176R/F33S/G80R/H175R/K168Q/Q94H/R138E/R41S/V100E); conditions: time points 0-8 h
HLA-A*24:02 [7] = target: T2, HLA-A*24:02; conditions: time points 0-8 h
HLA-A*02:01 [8] = target: T5, HLA-A*02:01; conditions: percent relative the binding of positive control peptide […]; plate-bound monomer 0.5 µg/ml; duplicated experiments; positive binder >40%
HLA-B*58:01 [9] = target: T7, HLA-B*58:01 (Homo sapiens, UniProt P01889, A329T/C349S/D201E/D98Y/E176V/E187L/E204Q/E69T/G107R/I218V/I90N/K202T/L105A/L119I/N104I/N87E/Q89R/Q94S/R106L/R155S/R180L/R86G/S101N/S121R/S35A/S48A/T118I/V127L/V306I/V36M/Y140S/Y91M); conditions: percent relative the binding of positive control peptide […]; duplicated experiments; positive binder >40%
HLA-A*30:01 [10] = target: T8, HLA-A*30:01 (Homo sapiens, UniProt P04439, D140H/D185E/E176W/F33S/G80R/H175R/K168Q/R138E/R41S); assay: affinity assay (ED50); conditions: peptide titrated 10−4 to 10−9 M
HLA-A*30:01 [11] = target: T8, HLA-A*30:01; assay: off-rate assay (t1/2); conditions: time points 0-8 h
HLA-A*30:01 [12] = target: T8, HLA-A*30:01; conditions: percent relative the binding of positive control peptide […]; duplicated experiments; positive binder >40%
HLA-A*02:01 [13] = target: T5, HLA-A*02:01; conditions: […]; peptide quantity for 50% binding saturation
HLA-A*30:02 [14] = target: T6, HLA-A*30:02
HLA-A*30:02 [15] = target: T6, HLA-A*30:02; conditions: percent relative the binding of positive control peptide […]; duplicated experiments; positive binder >40%
HLA-A*24:02 [16] = target: T2, HLA-A*24:02
HLA-A*68:01 [17] = target: T1, HLA-A*68:01; conditions: time points 0-8 h
HLA-C*07:01 [18] = target: T4, HLA-C*07:01; assay: off-rate assay (t1/2); conditions: time points 0-8 h
HLA-A*68:01 [19] = target: T1, HLA-A*68:01
HLA-B*07:02 [20] = target: T3, HLA-B*07:02; assay: affinity assay (ED50); conditions: peptide titrated 10−4 to 10−9 M
HLA-C*07:01 [21] = target: T4, HLA-C*07:01; assay: affinity assay (ED50)
HLA-B*07:02 [22] = target: T3, HLA-B*07:02; assay: off-rate assay (t1/2); conditions: time points 0-8 h
HLA-B*58:01 [23] = target: T7, HLA-B*58:01
HLA-B*58:01 [24] = target: T7, HLA-B*58:01; conditions: time points 0-8 h

| Substance | Bind A*68:01 (HLA-A*68:01 [1]) | Bind A*24:02 (HLA-A*24:02 [2]) | Bind B*07:02 (HLA-B*07:02 [3]) | Bind C*07:01 (HLA-C*07:01 [4]) | O-rate A*02:01 (t1/2) (HLA-A*02:01 [5]) | O-rate A*30:02 (t1/2) (HLA-A*30:02 [6]) | O-rate A*24:02 (t1/2) (HLA-A*24:02 [7]) | Bind A*02:01 (HLA-A*02:01 [8]) | Bind B*58:01 (HLA-B*58:01 [9]) | Aff A*30:01 (ED50) (HLA-A*30:01 [10]) | O-rate A*30:01 (t1/2) (HLA-A*30:01 [11]) | Bind A*30:01 (HLA-A*30:01 [12]) | Aff A*02:01 (ED50) (HLA-A*02:01 [13]) | Aff A*30:02 (ED50) (HLA-A*30:02 [14]) | Bind A*30:02 (HLA-A*30:02 [15]) | Aff A*24:02 (ED50) (HLA-A*24:02 [16]) | O-rate C*07:01 (t1/2) (HLA-C*07:01 [18]) | Aff B*07:02 (ED50) (HLA-B*07:02 [20]) | Aff C*07:01 (ED50) (HLA-C*07:01 [21]) | O-rate B*07:02 (t1/2) (HLA-B*07:02 [22]) | further results |
| --- | --- | --- | --- | --- | --- | --- | --- | --- | --- | --- | --- | --- | --- | --- | --- | --- | --- | --- | --- | --- | --- |
| AMKGDLQSS | 0% | 42% | 9% | 23% | 102 min | 120 min | 18 min | 89% | 0% | 2E -06 M | 30 min | 129% | 2E -07 M | 1E -07 M | 47% | 400000 nM | – | – | – | – | – |
| LSMAGSSAM | 51% | 14% | 92% | 71% | 84 min | 66 min | – | 72% | 0% | – | – | 0% | 2e-07 M | 3E -06 M | 79% | – | 72 min | 3E -07 M | 3E -06 M | 156 min | O-rate A*68:01 (t1/2) (HLA-A*68:01 [17]): 132 min; Aff A*68:01 (ED50) (HLA-A*68:01 [19]): 1E -06 M |
| MGRDIKVQF | 10% | 25% | 41% | 68% | – | 18 min | – | 0% | 61% | – | – | 0% | – | 7e-08 M | 61% | – | 12 min | 8e-07 M | 8e-08 M | 18 min | Aff B*58:01 (ED50) (HLA-B*58:01 [23]): 3e-07 M; O-rate B*58:01 (t1/2) (HLA-B*58:01 [24]): 18 min |
| VANNT RLWV | 3% | 58% | 61% | 69% | 150 min | 48 min | 18 min | 77% | 49% | 3E -08 M | 30 min | 141% | 5E -07 M | 1e-07 M | 171% | 4000 nM | 36 min | 6e-07 M | 3E -07 M | 42 min | Aff B*58:01 (ED50) (HLA-B*58:01 [23]): 1e-08 M; O-rate B*58:01 (t1/2) (HLA-B*58:01 [24]): 114 min |
| WL S ANR AV K | 139% | 40% | 49% | 16% | – | – | – | 13% | 1% | 1E -06 M | 30 min | 179% | – | – | 6% | – | – | 2E -06 M | – | 42 min | O-rate A*68:01 (t1/2) (HLA-A*68:01 [17]): 126 min; Aff A*68:01 (ED50) (HLA-A*68:01 [19]): 2E -07 M |
| YAGSLSALL | 13% | 81% | 41% | 19% | – | 54 min | 72 min | 66% | 58% | – | – | 0% | – | 2e-07 M | 64% | 1000 nM | – | 1e-05 M | – | 36 min | Aff B*58:01 (ED50) (HLA-B*58:01 [23]): 3E -08 M; O-rate B*58:01 (t1/2) (HLA-B*58:01 [24]): 42 min |
